1 compound from patent publication US6538005B2, “Phenanthridine-N-oxides with PDE-IV inhibiting activity” (ALTANA Pharma AG, priority 1999, dated 2003) can be followed below.

One data set relates to PDE4. In words: Inhibition of PDE4 activity (method of Bauer and Schwabe, adapted to microtiter plates). The note with it: inhibitory concentration as −log IC50 (mol/l). The format is biochemical. The source says: The activity test can be carried out, for example, according to the method of Bauer and Schwabe. For this, the method is adapted to microfiter plates (Naunyn-Schmiedeberg's Arch. Pharmacol. 1980, 311, 193-198). The PDE reaction takes place in the first step here. In a second step, the resulting 5′-nucleotide is cleaved by a 5′-nucleotidase of the snake venom of Crotalus atrox to the uncharged nucleoside. In the third step, the nucleoside is separated from the remaining charged substrate on ion-exchange columns. The columns are eluted directly into minivials, into which 2 ml of scintillator fluid are additionally added for counting, using 2 ml of 30 mM ammonium formate (pH 6.0).
The inhibitory values determined for the compounds according to the invention [inhibitory concentration as −log IC50 (mol/l)] follow from the following Table A, in which the numbers of the compounds correspond to the numbers of the examples.

By melting point is commonly meant the temperature of the solid-liquid transition. For `COc1ccc(NC(=O)c2cccc(C3=[N+]([O-])C4CCCCC4c4cc(OC)c(OC)cc43)c2)cc1` (single isomer, unassigned; (-)) [Compound 1, (−)-cis-8,9-Dimethoxy-6-[3-(4-methoxyphenylamido)phenyl]-1,2,3,4,4a,10b-hexahydrophenanthridine-5-N-oxide], the melting point was 229 to 230 °C. In addition, in the data set on PDE4, the “−log IC50” value was 6.73 mol/l.
